Data reported in the C3SDB collision cross section collection.
Where “and” joins values, the source holds several entries; their conditions need not be identical. Equal entries are not always repeated. Structures can show the parent of a compound that is named as a salt.

Conditions: instrument: DT, single field, calibrated with ESI Low Concentration Tuning Mix (Agilent)

Structure (SMILES) | collision cross section (N2) ([M+H]+) | collision cross section (N2) ([M+Na]+) [Å²] | collision cross section (N2) ([M-H]-) | other results
C[C@@H]1NC(=O)N[C@@H]1CCCCCC(=O)O [DETHIOBIOTIN] | 144 Å² | 155 | 152.5 Å² | collision cross section (N2) ([M+K]+): 155.8 Å²; collision cross section (N2) ([M+Na-2H]-): 148.8 Å²
Nc1nc(=O)c2ncn([C@H]3C[C@H](O)[C@@H](COP(=O)(O)OP(=O)(O)O)O3)c2[nH]1 [DGDP] | 188.5 Å² | 185.2 | 180.8 Å² | collision cross section (N2) ([M+Na-2H]-): 177.5 Å² and 185.6 Å²
O=C1CC(C(=O)O)NC(=O)N1 (centres undefined) [DIHYDROOROTATE] |  |  | 125.2 Å² | 
Cc1cn([C@H]2C[C@H](O)[C@@H](COP(=O)(O)OP(=O)(O)OC3O[C@H](CO)[C@@H](O)[C@H](O)[C@H]3O)O2)c(=O)[nH]c1=O (stereo partly drawn) [DTDP-D-GLUCOSE] |  | 209.9 | 209.5 Å² | collision cross section (N2) ([M+Na-2H]-): 218.2 Å²
CNC[C@H](O)c1ccc(O)c(O)c1 [EPINEPHRINE] |  |  | 140.1 Å² | 
NCCOP(=O)(O)O [ETHANOLAMINE PHOSPHATE] |  |  | 123 Å² | 
O=C(CO)[C@@H](O)[C@H](O)[C@H](O)COP(=O)(O)O [FRUCTOSE 6-PHOSPHATE] |  | 154.4 | 144.1 Å² | collision cross section (N2) ([M+Na-2H]-): 154.9 Å²
O=P(O)(O)OC1O[C@H](CO)[C@@H](O)[C@H](O)[C@H]1O (some centres undefined) [GLUCOSE 1-PHOSPHATE] |  | 158.3 | 148.7 Å² | 
O=P(O)(O)OC[C@H]1OC(O)[C@H](O)[C@@H](O)[C@@H]1O (some centres undefined) [GLUCOSE 6-PHOSPHATE] |  | 158.1 | 146.5 Å² and 146.6 Å² | collision cross section (N2) ([M+Na-2H]-): 156.9 Å²
N[C@@H](CCC(=O)N[C@@H](CS)C(=O)NCC(=O)O)C(=O)O [GLUTATHIONE REDUCED] | 167.8 Å² | 167 | 162.1 Å² | collision cross section (N2) ([M+Na-2H]-): 164.8 Å²
O=P(O)(O)OCC(O)CO (centres undefined) [GLYCEROL 3-PHOSPHATE] |  | 137.1 | 127.2 Å² | 
C[C@H](CCC(=O)NCC(=O)O)[C@H]1CC[C@H]2[C@@H]3[C@H](O)C[C@@H]4C[C@H](O)CC[C@]4(C)[C@H]3C[C@H](O)[C@]12C [GLYCOCHOLATE] | 199.7 Å² | 202.2 | 202.2 Å² | collision cross section (N2) ([M+K]+): 208 Å²
O=C(O)CNC(=O)c1ccccc1 [HIPPURATE] |  | 149.6 | 142 Å² | 
NC(CCO)C(=O)O (centres undefined) [HOMOSERINE] | 125.9 Å² |  | 120.2 Å² | 
COc1cc(CC(=O)O)ccc1O [HOMOVANILLATE] |  | 146.2 | 136 Å² | 
O=C(O)C(O)Cc1ccc(O)cc1 (centres undefined) [HYDROXYPHENYLLACTATE] |  | 144.2 | 141.9 Å² | 
O=C(O)Cc1c[nH]c2ccccc12 [INDOLE-3-ACETATE] | 135.9 Å² | 143.5 |  | 
O=S(=O)(O)Oc1c[nH]c2ccccc12 [INDOXYL SULFATE] |  |  | 143.3 Å² | 
O=c1nc[nH]c2c1ncn2[C@@H]1O[C@H](COP(=O)(O)OP(=O)(O)O)[C@@H](O)[C@H]1O [INOSINE 5'-DIPHOSPHATE] | 186.6 Å² | 184 |  | collision cross section (N2) ([M+Na-2H]-): 180 Å²
O=c1nc[nH]c2c1ncn2[C@@H]1O[C@H](COP(=O)(O)OP(=O)(O)OP(=O)(O)O)[C@@H](O)[C@H]1O [INOSINE TRIPHOSPHATE] | 193.6 Å² | 197 | 189.2 Å² | collision cross section (N2) ([M+Na-2H]-): 182.8 Å²
O=C(O)c1cc(=O)c2ccccc2[nH]1 [KYNURENATE] | 136.7 Å² | 151.1 | 133.9 Å² | 
C[N+](C)(C)C[C@H](O)CC(=O)[O-] [L-CARNITINE] | 132.9 Å² |  |  | 

Structure (SMILES) | collision cross section (N2) ([M+H]+) | collision cross section (N2) ([M+Na]+) [Å²] | collision cross section (N2) ([M-H]-) | other results
NCCC[C@H](N)C(=O)O [L-ORNITHINE] | 127.7 Å² |  |  | 
OC[C@H]1O[C@@H](O[C@H]2[C@H](O)[C@@H](O)[C@H](O)O[C@@H]2CO)[C@H](O)[C@@H](O)[C@H]1O [LACTOSE] |  | 175.3 | 176.9 Å² | collision cross section (N2) ([M+K]+): 178.6 Å²
C[C@H](CCC(=O)NCCS(=O)(=O)O)[C@H]1CC[C@H]2[C@@H]3CC[C@@H]4C[C@H](O)CC[C@]4(C)[C@H]3CC[C@]12C [LITHOCHOLYLTAURINE] |  | 213.1 | 206.6 Å² | 
NCCCC[C@H](N)C(=O)O [LYSINE] | 131.2 Å² and 131.4 Å² | 135.5 | 133.5 Å² and 133.7 Å² | 
OC1OC[C@@H](O)[C@H](O)[C@@H]1O (some centres undefined) [LYXOSE] |  | 136.8 |  | 
CSC[C@H]1O[C@@H](n2cnc3c(N)ncnc32)[C@H](O)[C@@H]1O [METHYLTHIOADENOSINE] | 162.5 Å² and 170.7 Å² | 172.4 | 166.9 Å² | 
CC(=O)NCCCNCCCCNCCCN [N1-ACETYLSPERMINE] | 158 Å² | 162 |  | 
CC(=O)N[C@@H](CC(=O)O)C(=O)O [N-ACETYLASPARTATE] |  | 139.3 | 131 Å² | 
CC(=O)N[C@@H](CS)C(=O)O [N-ACETYLCYSTEINE] |  | 140.9 |  | 
CC(=O)NCC(=O)O [N-ACETYLGLYCINE] |  | 133 |  | 
CSCC[C@H](NC(C)=O)C(=O)O [N-ACETYLMETHIONINE] |  | 150.1 | 142.6 Å² | 
CC(=O)NC(Cc1ccccc1)C(=O)O (centres undefined) [N-ACETYLPHENYLALANINE] |  | 149.4 | 146.9 Å² | 
CSCC[C@H](NC=O)C(=O)O [N-FORMYL-L-METHIONINE] |  | 145.3 | 136.1 Å² | 
NC(=O)C1=CN([C@@H]2O[C@H](COP(=O)(O)OP(=O)(O)OC[C@H]3O[C@@H](n4cnc5c(N)ncnc54)[C@H](OP(=O)(O)O)[C@@H]3O)[C@@H](O)[C@H]2O)C=CC1 [NADPH] |  |  | 246.7 Å² | collision cross section (N2) ([M+Na-H]+): 240.5 Å²; collision cross section (N2) ([M+]+): 232.2 Å²
NC(=O)c1ccc[n+]([C@@H]2O[C@H](COP(=O)(O)OP(=O)(O)OC[C@H]3O[C@@H](n4cnc5c(N)ncnc54)[C@H](OP(=O)(O)O)[C@@H]3O)[C@@H](O)[C@H]2O)c1 [NADP] | 232.6 Å² | 240.9 | 230.7 Å² and 230.9 Å² | collision cross section (N2) ([M+H2O-H]-): 243.9 Å²; collision cross section (N2) ([M+Na-2H]-): 231.5 Å² and 231.8 Å²
CCCCCCCC/C=C\CCCCCCCCCCCCCC(=O)[O-] [NERVONATE] |  | 204.4 | 197.5 Å² | 
NC(=O)c1ccc[n+]([C@@H]2O[C@H](COP(=O)([O-])O)[C@@H](O)[C@H]2O)c1 [NICOTINAMIDE MONONUCLEOTIDE] | 166 Å² |  |  | 
Nc1ncnc2c1ncn2[C@@H]1O[C@H](COP(=O)(O)OP(=O)([O-])OC[C@H]2O[C@@H]([n+]3cccc(C(=O)O)c3)[C@H](O)[C@@H]2O)[C@@H](O)[C@H]1OP(=O)(O)O [NICOTINIC ACID ADENINE DINUCLEOTIDE PHOSPHATE] | 230.4 Å² |  | 230.3 Å² | 
NC[C@H](O)c1ccc(O)c(O)c1 [NORADRENALINE] |  |  | 134.2 Å² | collision cross section (N2) ([M-H2O+H]+): 137.2 Å²
CCCC[C@H](N)C(=O)O [NORLEUCINE] | 136 Å² |  | 132 Å² | 
NCCCNCCCN [NORSPERMIDINE] | 127.6 Å² | 132.4 |  | 
